Measured values from the NIST ThermoML archive (doi:10.1021/je0499723).
± gives the expanded uncertainty stated by the source. One block for each compound: values may come before it.

How the values were obtained:
[1] = Liquid; for Critical pressure: Direct measurement; for Critical temperature: Visual observation in an unstirred cell
[2] = xn = mol fraction of the nth substance listed; details: Liquid

Critical density [1]: 598 ± 14 kg/m3
Critical pressure [1]: 2930 ± 12 kPa
Critical temperature [1]: 375 ± 0.16 K
SMILES: FC(C(F)(F)F)C(F)(F)F [1,1,1,2,3,3,3-heptafluoropropane]

Critical density ([2]; x2 = 0): 598 ± 14 kg/m3
SMILES: FC(C(F)(F)F)C(F)(F)F [1,1,1,2,3,3,3-heptafluoropropane] + COC(F)(F)F

SMILES: FC(F)C(F)C(F)(F)F (stereo not drawn) [1,1,1,2,3,3-hexafluoropropane]
Critical density [1]: 562 ± 13 kg/m3
Critical pressure [1]: 3416 ± 12 kPa
Critical temperature [1]: 412.41 ± 0.16 K

SMILES: FC(F)C(F)C(F)(F)F (stereo not drawn) [1,1,1,2,3,3-hexafluoropropane] + COC(F)(F)F
Critical density ([2]; x2 = 0): 562 ± 13 kg/m3
Critical density ([2]; x2 = 0.2452): 545 ± 13 kg/m3
Critical density ([2]; x2 = 0.3348): 541 ± 13 kg/m3
Critical density ([2]; x2 = 0.5434): 518 ± 12 kg/m3
Critical density ([2]; x2 = 0.7338): 497 ± 12 kg/m3
Critical density ([2]; x2 = 0.8497): 476 ± 11 kg/m3

SMILES: FCC(F)(F)F [1,1,1,2-tetrafluoroethane]
Critical density [1]: 508 ± 12 kg/m3
Critical pressure [1]: 4053 ± 12 kPa
Critical temperature [1]: 374.13 ± 0.16 K

SMILES: FCC(F)(F)F [1,1,1,2-tetrafluoroethane] + COC(F)(F)F
Critical density ([2]; x2 = 0): 508 ± 12 kg/m3

SMILES: FC(F)C(F)(F)F [pentafluoroethane]
Critical density [1]: 560 ± 13 kg/m3
Critical pressure [1]: 3617 ± 12 kPa
Critical temperature [1]: 339.2 ± 0.16 K

SMILES: FC(F)C(F)(F)F [pentafluoroethane] + COC(F)(F)F
Critical density ([2]; x2 = 0): 560 ± 13 kg/m3

SMILES: COC(F)(F)F [trifluoromethoxymethane]
Critical density [1]: 459 ± 11 kg/m3
Critical pressure [1]: 3640 ± 12 kPa
Critical temperature [1]: 377.92 ± 0.16 K

SMILES: COC(F)(F)F [trifluoromethoxymethane] + FC(C(F)(F)F)C(F)(F)F
Critical density ([2]; x1 = 0.1647): 574 ± 13 kg/m3
Critical density ([2]; x1 = 0.3999): 543 ± 13 kg/m3
Critical density ([2]; x1 = 0.4999): 526 ± 12 kg/m3
Critical density ([2]; x1 = 0.6664): 508 ± 12 kg/m3
Critical density ([2]; x1 = 0.8165): 486 ± 11 kg/m3
Critical density ([2]; x1 = 1): 459 ± 11 kg/m3

SMILES: COC(F)(F)F [trifluoromethoxymethane] + FC(F)C(F)(F)F
Critical density ([2]; x1 = 0.1859): 555 ± 13 kg/m3
Critical density ([2]; x1 = 0.3073): 523 ± 12 kg/m3
Critical density ([2]; x1 = 0.5185): 515 ± 12 kg/m3
Critical density ([2]; x1 = 0.7094): 491 ± 11 kg/m3
Critical density ([2]; x1 = 0.8305): 479 ± 11 kg/m3
Critical density ([2]; x1 = 1): 459 ± 11 kg/m3

SMILES: COC(F)(F)F [trifluoromethoxymethane] + FC(F)C(F)C(F)(F)F
Critical density ([2]; x1 = 1): 459 ± 11 kg/m3

SMILES: COC(F)(F)F [trifluoromethoxymethane] + FCC(F)(F)F
Critical density ([2]; x1 = 0.1649): 508 ± 12 kg/m3
Critical density ([2]; x1 = 0.2914): 492 ± 11 kg/m3
Critical density ([2]; x1 = 0.4897): 486 ± 11 kg/m3
Critical density ([2]; x1 = 0.6543): 480 ± 11 kg/m3
Critical density ([2]; x1 = 0.8151): 468 ± 11 kg/m3
Critical density ([2]; x1 = 1): 459 ± 11 kg/m3
